US5451522A, “Genes encoding and method of expressing an enzyme: phthalyl amidase” (priority 1994, dated 1995)

Key:
phthalyl amidase [1] = molecular target: T1, phthalyl amidase (Xanthobacter agilis, UniProt P0C2Y0); assay: Preparative scale hydrolysis to carbacephem nucleus; type: biochemical
T1 construct: 42-aa signal peptide removed
Experimental: (§1) Thus, either compound XXXIII or III can be used to prepare the carbacephem nucleus (XXXIV). Substrate (4 grams) was added to 20 ml of deionized water and the pH of the solution was adjusted to 8.0 with concentrated ammonium hydroxide. Phthalyl amidase, 80 units as determined using the chromogenic substrate (II), was added to start the reaction. Temperature was maintained at 30° C. and the pH maintained at 8.0 by adding 2N ammonium hydroxide. […] The pH of the reaction was lowered to 5.0 thereby precipitating the carbacephem nucleus. Isolated yields of the nucleus were between 65% and 77%. [drawing 26]

[2] = Stability of substrates in buffer without enzyme; type: physicochemical; settings: buffer at pH 8.0
Experimental: (§2) The activity of phthalyl amidase against 25 compounds was determined. The compounds were divided into beta-lactams (Table 9), phthalyl amides (Table 10), and aromatic ring substituted amides (Table 11). Each reaction mixture (1 ml total volume) contained 2.5 μmol of compound and 0.3 units of enzyme (based on the chromogenic substrate) of the preparative scale purified enzyme, in 50 mM phosphate buffer, pH 8.0. The reactions were conducted at 30° C. Samples of the reaction mixture were taken at various times, and methanol (equal volume) was added to stop the reaction. The samples were examined by HPLC to determine the extent of substrate hydrolysis. The amount of compound hydrolyzed was calculated from a standard curve of the test compound. All substrates were stable in buffer at 30° C. and pH 8.0 in the absence of enzyme for 24 hours.
as §1, with “Isolated yields of the nucleus were between 65% and 77%. [drawing 26]” left out

phthalyl amidase [3] = molecular target: T1, phthalyl amidase; assay: Substrate specificity: chemical structure requirements for enzyme activity; type: biochemical; settings: 2.5 μmol compound, 0.3 units enzyme, 50 mM phosphate pH 8.0, 30° C.
Experimental: as §2

phthalyl amidase [4] = molecular target: T1, phthalyl amidase; assay: Kinetic parameters for phthalyl amidase; type: biochemical; settings: 50 mM potassium phosphate buffer, pH 8.0, 30° C.
Experimental: (§3) The kinetic parameters of the enzyme were determined for several representative substrates. Compounds II, XVII, and XVIII were tested using 0.9 μg/ml of enzyme. Compounds III and XI were tested using 5.14 μg/ml of enzyme. Substrate concentrations were between 0 and 25 mM and reaction time was between 2 and 20 minutes, depending on the substrate used. […] Km is the Michaelis constant for enzyme kinetics, Vmax is the maximal rate of reaction calculated by the Michaelis-Menten equation, and Kcat is the catalytic constant for an enzyme reaction.

phthalyl amidase [5] = molecular target: T1, phthalyl amidase; assay: Chiral and additional substrate selectivity of phthalyl amidase; type: biochemical; settings: Table 13; III = 100; 0.009 mg (0.6 units) enzyme, 2.5 μmol substrate, buffer A, 30° C.
Experimental: Several additional substrates were tested in a total volume of 1 ml. […] Reactions were stopped by the addition of methanol, and phthalic acid formation was monitored by HPLC.

[6] = substrate: O=C(O)CNC(=O)c1ccccc1C(=O)O; assay: Kinetic parameters for phthalyl amidase; type: biochemical, Xanthobacter agilis; settings: other: 32° C., pH 8.2; II, XVII, XVIII with 0.9 μg/ml enzyme, III and XI with 5.14 μg/ml; pH 8.2; 32.0 °C
Experimental: as §3

[7] = substrate: O=C(O)C1=C(Cl)CCC2C(NC(=O)c3ccccc3C(=O)O)C(=O)N12; assay: Kinetic parameters for phthalyl amidase; type: biochemical, Xanthobacter agilis
Experimental: as §3

[8] = substrate: O=C(O)c1ccccc1C(=O)Nc1ccc([N+](=O)[O-])c(C(=O)O)c1; assay: Kinetic parameters for phthalyl amidase; type: biochemical, Xanthobacter agilis; settings: other: 32° C., pH 8.2; II, XVII, XVIII with 0.9 μg/ml enzyme, III and XI with 5.14 μg/ml; pH 8.2; 32.0 °C
Experimental: as §3

[9] = substrate: CCCCCCC(C(=O)O)n1cnc(NC(=O)c2c(F)cccc2C(=O)O)c1; assay: Kinetic parameters for phthalyl amidase; type: biochemical, Xanthobacter agilis; settings: other: 32° C., pH 8.2; II, XVII, XVIII with 0.9 μg/ml enzyme, III and XI with 5.14 μg/ml; pH 8.2; 32.0 °C
Experimental: as §3

[10] = substrate: CCCCCCC(C(=O)O)n1cnc(NC(=O)c2ccccc2C(=O)O)c1; assay: Kinetic parameters for phthalyl amidase; type: biochemical, Xanthobacter agilis; settings: other: 32° C., pH 8.2; II, XVII, XVIII with 0.9 μg/ml enzyme, III and XI with 5.14 μg/ml; pH 8.2; 32.0 °C
Experimental: as §3

For `O=C(O)C1=C(Cl)CCC2C(N3C(=O)c4ccccc4C3=O)C(=O)N12` (stereo not shown) [XXXIII], the “hydrolyzed (HPLC)” value (phthalyl amidase [1]; 4 grams substrate, 80 units enzyme, pH 8.0, 30° C., after 510 minutes) was 98% and the “hydrolysis of phthalimido to phthalamido form in buffer (in words)” value [2] was “readily hydrolyzes”.

With `O=C(O)C1=C(Cl)CCC2C(NC(=O)c3ccccc3C(=O)O)C(=O)N12` (stereo not shown) [III, 7-phthalamido-3-chloro-4-carboxy-1-carba-dethioceph-3-em] the Relative Activity (phthalyl amidase [3]; Table 9 beta-lactams, III = 100) was 100, the “Relative Activity” value (phthalyl amidase [3]; Table 10 phthalyl amides, III = 100.0) was 100.0 and the “hydrolyzed (HPLC)” value (phthalyl amidase [1]; phthalyl amidase, […], pH 8) was 90.0%. For the same molecule, the Vmax (phthalyl amidase [4]) was 7.6 µmol/min/mg and the “Relative Activity” value (phthalyl amidase [5]) was 100.

B1: phthalyl amidase (Xanthobacter agilis) (protein)
chain: QAPSVHQHVAFTEEIGDLPDGSSYMIRVPENWNGVLIRDLDLVSGTSNSNAARYETMLKEGFAVAGTARHPLRQWQYDPAHEIENLNHVLDTFEENYGSPERVIQYGCSGGAHVSLAVAEDFSDRVDGSVALAAHTPVWIMNSFLDGWFSLQSLIGEYYVEAGHGPLSDLAITKLPNDGSSNSSGHGMEGDLPAAWRNAFTAANATPEGRARMALAFALGQWSPWLADNTPQPDLDDPEAIADSVYESAMRLAGSPGGEARIMFENAARGQQLSWNDDIDYADFWENSNPAMKSAVQELYDTAGLDLQSDIETVNSQPRIEASQYALDYWNTPGRNVIGDPEVPVLRLHMIGDYQIPYSLVQGYSDLISENNNDDLYRTAFVQSTGHCNFTAAESSAAIEVMMQRLDTGEWPSTEPDDLNAIAEASNTGTEARFMALDGWEIPEYNRTWKPE
notes: 42-aa signal peptide removed
In the case of B1, the Km [6] is reported as 140 µM, the Km ([7]; other: 50 mM potassium phosphate buffer, pH 8.0, 30° C., pH 8.0, 30.0 °C) is reported as 900 µM and the Km ([7]; other: 32° C., pH 8.2, II, XVII, XVIII with 0.9 μg/ml enzyme, III and XI with 5.14 μg/ml, pH 8.2, 32.0 °C) is reported as 900 µM. For the same molecule, the Km [8] was 50 µM, the Km [9] was 170 µM and the Km [10] was 90 µM.
